Assays:
[1] = Neurotoxicity against mouse HT-22 cells assessed as cell survival treated for 24 hrs by MTS assay; format: toxicity, cell-based
[2] = target: Dual specificity protein kinase CLK4 (Mus musculus, UniProt O35493); assay: Inhibition of GST-fused mouse recombinant CLK4 expressed in Escherichia coli using GRSRSRSRSRSR peptide as substrate incubated for 30 mins in presence of ATP by scintillation counting method
HT-22 [3] = assay: Neuroprotective activity against glutamate-induced cell death in mouse HT-22 cells treated for 24 hrs by MTS assay; format: functional, cell-based; conditions: HT-22, 24 h
Cannabinoid receptor 1 = Cannabinoid receptor 1 (Homo sapiens, UniProt P21554); assay: Antagonist activity at CP-55940-activated CB1 receptor (unknown origin) at 10 uM by beta-arrestin assay relative to control; format: functional; design: scale not given: the % may be the effect or the level left
[4] = target: Dual specificity protein kinase CLK3 (Mus musculus, UniProt O35492); assay: Inhibition of GST-fused mouse recombinant CLK3 expressed in Escherichia coli using GRSRSRSRSRSR peptide as substrate incubated for 30 mins in presence of ATP by scintillation counting method
[5] = target: T1, Dual specificity tyrosine-phosphorylation-regulated kinase 2 (Homo sapiens, UniProt Q92630); assay: Inhibition of GST-fused human recombinant DYRK2 expressed in Escherichia coli using GRSRSRSRSRSR peptide as substrate incubated for 30 mins in presence of ATP by scintillation counting method
T1 sequence (Q92630 whole entry): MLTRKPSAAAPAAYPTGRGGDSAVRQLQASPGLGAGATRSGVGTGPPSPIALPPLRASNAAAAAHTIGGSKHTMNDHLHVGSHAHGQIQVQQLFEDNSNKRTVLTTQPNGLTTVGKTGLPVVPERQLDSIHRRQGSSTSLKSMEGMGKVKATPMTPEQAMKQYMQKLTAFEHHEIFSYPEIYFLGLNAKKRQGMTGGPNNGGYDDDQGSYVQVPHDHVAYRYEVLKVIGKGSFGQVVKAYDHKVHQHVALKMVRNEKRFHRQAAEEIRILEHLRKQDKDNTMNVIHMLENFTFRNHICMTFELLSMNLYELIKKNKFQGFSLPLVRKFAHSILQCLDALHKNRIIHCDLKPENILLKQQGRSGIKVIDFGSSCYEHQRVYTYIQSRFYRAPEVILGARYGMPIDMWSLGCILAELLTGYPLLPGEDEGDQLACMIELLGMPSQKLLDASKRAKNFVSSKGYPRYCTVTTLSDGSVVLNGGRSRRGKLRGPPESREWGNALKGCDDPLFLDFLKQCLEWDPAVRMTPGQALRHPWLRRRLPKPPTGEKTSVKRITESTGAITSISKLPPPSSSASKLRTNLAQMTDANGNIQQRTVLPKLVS

[6] = target: Dual specificity tyrosine-phosphorylation-regulated kinase 1A (Homo sapiens, UniProt Q13627); assay: Inhibition of GST-fused human recombinant DYRK1A expressed in Escherichia coli using GRSRSRSRSRSR peptide as substrate incubated for 30 mins in presence of ATP by scintillation counting method
Casein kinase 2 = Casein kinase 2 (Homo sapiens, UniProt P67870+P68400+P19784+Q8NEV1); assay: Inhibition of human recombinant CK2 using RRRDDDSDDD peptide as substrate incubated for 30 mins in presence of ATP by scintillation counting method; format: protein assay
[7] = target: Dual specificity protein kinase CLK2 (Mus musculus, UniProt O35491); assay: Inhibition of mouse recombinant GST-fused CLK2 expressed in Escherichia coli using GRSRSRSRSRSR peptide as substrate incubated for 30 mins in presence of ATP by scintillation counting method
[8] = target: Glycogen synthase kinase-3 (Sus scrofa, UniProt B2LUN4+I6LNT8); assay: Inhibition of porcine brain GSK-3alpha/beta using YRRAAVPPSPSLSRHSSPHQpSEDEEE as substrate incubated for 30 mins in presence of ATP by scintillation counting method; format: tissue-based
[9] = target: Dual specificity protein kinase CLK1 (Mus musculus, UniProt P22518); assay: Inhibition of GST-fused mouse recombinant CLK1 expressed in Escherichia coli using GRSRSRSRSRSR peptide as substrate incubated for 30 mins in presence of ATP by scintillation counting method
U2OS = assay: Induction of PI3K/mTor-dependent autophagy in human U2OS cells assessed as number of LC3 foci per cell at 10 uM measured after 4 hrs; format: cell-based; conditions: filed as activator
[10] = target: Dual specificity tyrosine-phosphorylation-regulated kinase 1B (Homo sapiens, UniProt Q9Y463)
[11] = target: T2, Dual specificity tyrosine-phosphorylation-regulated kinase 3 (Homo sapiens, UniProt O43781); assay: Inhibition of GST-fused human recombinant DYRK3 expressed in Escherichia coli using GRSRSRSRSRSR peptide as substrate incubated for 30 mins in presence of ATP by scintillation counting method
T2 sequence (O43781 whole entry): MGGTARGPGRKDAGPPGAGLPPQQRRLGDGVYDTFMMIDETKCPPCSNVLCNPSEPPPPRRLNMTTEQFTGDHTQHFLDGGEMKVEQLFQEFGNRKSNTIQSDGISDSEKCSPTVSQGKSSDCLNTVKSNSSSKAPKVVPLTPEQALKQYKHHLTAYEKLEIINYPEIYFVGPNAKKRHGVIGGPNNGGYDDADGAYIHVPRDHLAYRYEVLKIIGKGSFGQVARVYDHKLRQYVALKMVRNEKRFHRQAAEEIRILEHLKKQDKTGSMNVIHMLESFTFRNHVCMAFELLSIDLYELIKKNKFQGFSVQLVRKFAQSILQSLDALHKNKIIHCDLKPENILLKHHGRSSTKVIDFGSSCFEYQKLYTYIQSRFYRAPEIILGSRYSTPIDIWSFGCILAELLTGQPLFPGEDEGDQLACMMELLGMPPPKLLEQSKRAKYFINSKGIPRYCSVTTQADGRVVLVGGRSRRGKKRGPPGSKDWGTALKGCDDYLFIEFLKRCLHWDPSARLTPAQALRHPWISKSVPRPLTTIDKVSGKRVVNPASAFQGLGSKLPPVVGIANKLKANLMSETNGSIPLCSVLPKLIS

[12] = target: Serine/threonine-protein kinase pim-1 (Homo sapiens, UniProt P11309); assay: Inhibition of human recombinant Pim1 expressed in Escherichia coli using histone H1 as substrate incubated for 30 mins in presence of ATP by scintillation counting method
HT-22 [13] = assay: Modulation of CLK1 pre-mRNA splicing in mouse HT-22 cells assessed as inclusion of CLK1 exon 4 by measuring change in threshold cycle at 10 uM measured after 4 hrs by real time PCR analysis; format: cell-based; conditions: filed as modulator
[14] = Neurotoxicity against mouse HT-22 cells assessed as cell survival at 20 uM treated for 24 hrs by MTS assay; format: toxicity, cell-based; conditions: ht-22, 24 h

Chain of Dual specificity protein kinase CLK3 (O35492 whole entry, the tested form may be a part): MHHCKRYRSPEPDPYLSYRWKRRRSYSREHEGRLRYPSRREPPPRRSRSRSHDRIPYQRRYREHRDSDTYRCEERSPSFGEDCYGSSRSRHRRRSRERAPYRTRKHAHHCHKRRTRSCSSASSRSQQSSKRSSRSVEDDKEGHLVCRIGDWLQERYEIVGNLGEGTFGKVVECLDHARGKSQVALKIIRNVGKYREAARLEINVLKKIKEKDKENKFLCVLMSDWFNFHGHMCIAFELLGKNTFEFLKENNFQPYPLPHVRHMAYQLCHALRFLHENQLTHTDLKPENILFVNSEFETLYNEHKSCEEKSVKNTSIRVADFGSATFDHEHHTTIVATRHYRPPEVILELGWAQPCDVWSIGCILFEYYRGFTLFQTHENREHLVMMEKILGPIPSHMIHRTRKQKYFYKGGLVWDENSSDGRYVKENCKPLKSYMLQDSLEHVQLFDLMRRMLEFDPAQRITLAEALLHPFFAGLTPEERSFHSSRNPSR
Chain of Dual specificity protein kinase CLK1 (P22518 whole entry, the tested form may be a part): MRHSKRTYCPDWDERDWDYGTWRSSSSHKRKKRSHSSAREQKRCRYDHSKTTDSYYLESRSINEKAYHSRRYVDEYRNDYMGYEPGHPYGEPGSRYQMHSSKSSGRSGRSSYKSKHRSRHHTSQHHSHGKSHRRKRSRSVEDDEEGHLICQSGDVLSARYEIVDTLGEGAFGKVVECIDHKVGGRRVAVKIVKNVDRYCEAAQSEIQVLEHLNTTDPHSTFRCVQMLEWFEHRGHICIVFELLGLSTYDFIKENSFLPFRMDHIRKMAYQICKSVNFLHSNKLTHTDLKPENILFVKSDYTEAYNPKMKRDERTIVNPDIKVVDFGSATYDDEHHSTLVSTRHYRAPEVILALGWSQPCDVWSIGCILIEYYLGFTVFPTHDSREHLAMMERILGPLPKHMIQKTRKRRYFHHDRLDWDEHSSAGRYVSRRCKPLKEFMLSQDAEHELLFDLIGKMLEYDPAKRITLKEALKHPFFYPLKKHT
Chain of Cannabinoid receptor 1 (P21554 whole entry, the tested form may be a part): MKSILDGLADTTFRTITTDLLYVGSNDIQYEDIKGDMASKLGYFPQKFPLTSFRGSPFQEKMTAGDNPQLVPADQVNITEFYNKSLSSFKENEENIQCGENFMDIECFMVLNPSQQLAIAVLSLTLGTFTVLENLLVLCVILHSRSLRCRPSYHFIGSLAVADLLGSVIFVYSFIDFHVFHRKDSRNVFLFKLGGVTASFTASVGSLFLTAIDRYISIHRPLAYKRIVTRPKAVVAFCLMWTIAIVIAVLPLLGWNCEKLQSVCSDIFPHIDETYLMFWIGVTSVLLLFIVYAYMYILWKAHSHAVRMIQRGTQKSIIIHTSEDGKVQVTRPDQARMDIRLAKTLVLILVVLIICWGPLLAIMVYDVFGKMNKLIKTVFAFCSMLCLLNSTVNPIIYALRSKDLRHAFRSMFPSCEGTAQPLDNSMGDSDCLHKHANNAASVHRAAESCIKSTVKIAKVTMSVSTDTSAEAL
Chain of Dual specificity protein kinase CLK4 (O35493 whole entry, the tested form may be a part): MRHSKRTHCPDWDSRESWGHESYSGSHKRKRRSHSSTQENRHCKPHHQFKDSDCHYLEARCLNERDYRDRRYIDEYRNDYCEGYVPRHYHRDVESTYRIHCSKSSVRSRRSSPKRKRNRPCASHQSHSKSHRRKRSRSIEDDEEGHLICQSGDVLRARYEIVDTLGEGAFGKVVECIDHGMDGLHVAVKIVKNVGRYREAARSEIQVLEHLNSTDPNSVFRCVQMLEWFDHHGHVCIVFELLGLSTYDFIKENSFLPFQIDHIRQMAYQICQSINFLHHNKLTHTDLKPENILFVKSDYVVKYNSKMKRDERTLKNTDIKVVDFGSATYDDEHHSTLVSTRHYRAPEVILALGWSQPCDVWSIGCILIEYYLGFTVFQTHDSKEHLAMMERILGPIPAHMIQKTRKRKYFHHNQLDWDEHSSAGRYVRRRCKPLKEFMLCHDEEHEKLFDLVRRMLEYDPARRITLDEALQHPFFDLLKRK
Chain of Dual specificity tyrosine-phosphorylation-regulated kinase 1B (Q9Y463 whole entry, the tested form may be a part): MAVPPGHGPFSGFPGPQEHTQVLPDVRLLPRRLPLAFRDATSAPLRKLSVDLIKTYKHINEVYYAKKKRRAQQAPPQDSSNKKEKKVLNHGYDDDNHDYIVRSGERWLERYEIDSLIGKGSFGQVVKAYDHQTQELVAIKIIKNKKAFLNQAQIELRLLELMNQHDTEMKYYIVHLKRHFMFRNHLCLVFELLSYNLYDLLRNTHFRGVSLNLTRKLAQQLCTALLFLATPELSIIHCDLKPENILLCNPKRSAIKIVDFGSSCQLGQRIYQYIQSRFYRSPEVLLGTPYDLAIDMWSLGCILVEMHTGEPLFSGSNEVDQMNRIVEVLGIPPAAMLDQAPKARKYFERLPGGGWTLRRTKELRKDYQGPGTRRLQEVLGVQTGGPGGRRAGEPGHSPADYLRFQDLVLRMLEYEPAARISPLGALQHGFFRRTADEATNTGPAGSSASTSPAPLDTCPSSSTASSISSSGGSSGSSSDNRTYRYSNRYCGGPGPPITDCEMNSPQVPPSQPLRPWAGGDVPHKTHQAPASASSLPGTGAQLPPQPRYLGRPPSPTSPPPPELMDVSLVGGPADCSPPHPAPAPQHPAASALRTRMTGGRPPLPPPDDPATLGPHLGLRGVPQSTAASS
Chain of Serine/threonine-protein kinase pim-1 (P11309 whole entry): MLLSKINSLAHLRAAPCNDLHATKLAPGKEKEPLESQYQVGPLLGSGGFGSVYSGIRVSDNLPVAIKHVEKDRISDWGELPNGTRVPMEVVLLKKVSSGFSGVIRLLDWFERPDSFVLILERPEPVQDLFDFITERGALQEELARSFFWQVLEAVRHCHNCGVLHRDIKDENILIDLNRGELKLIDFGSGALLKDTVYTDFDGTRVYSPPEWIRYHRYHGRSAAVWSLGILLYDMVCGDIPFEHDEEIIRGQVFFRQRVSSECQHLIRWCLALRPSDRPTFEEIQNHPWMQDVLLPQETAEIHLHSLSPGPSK
Chain of Dual specificity protein kinase CLK2 (O35491 whole entry, the tested form may be a part): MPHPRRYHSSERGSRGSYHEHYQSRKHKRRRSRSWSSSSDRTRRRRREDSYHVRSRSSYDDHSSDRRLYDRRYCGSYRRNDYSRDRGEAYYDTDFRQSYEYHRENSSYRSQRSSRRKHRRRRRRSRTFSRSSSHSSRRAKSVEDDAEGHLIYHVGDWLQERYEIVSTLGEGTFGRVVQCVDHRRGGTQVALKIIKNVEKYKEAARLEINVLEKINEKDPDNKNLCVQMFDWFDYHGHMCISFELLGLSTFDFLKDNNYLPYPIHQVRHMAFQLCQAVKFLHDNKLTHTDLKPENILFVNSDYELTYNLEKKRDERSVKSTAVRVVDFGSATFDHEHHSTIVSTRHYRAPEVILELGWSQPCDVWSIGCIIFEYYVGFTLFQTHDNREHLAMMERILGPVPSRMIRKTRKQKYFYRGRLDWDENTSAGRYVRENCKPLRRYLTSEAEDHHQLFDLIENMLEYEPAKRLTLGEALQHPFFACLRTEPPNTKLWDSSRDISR

Row | Compound | IC50 at 24 h [1] | IC50 [2] | EC50 (HT-22 [3]) | Activity (Cannabinoid receptor 1; filed as antagonist) | IC50 [4] | IC50 [5] | IC50 [6] | IC50 (Casein kinase 2) | IC50 [7] | IC50 [8] | IC50 [9] | Activity (U2OS) | IC50 [10] | IC50 [11] | IC50 [12] | Activity (Cannabinoid receptor 1) | deltaCT (HT-22 [13]) | Activity [14] | EC50 at 24 h [1]
1 | O=C1NC(Nc2ccccc2)=N/C1=C\c1ccc2c(c1)CCCO2 | > 20 µM | 0.14 µM | 3.5 µM | 94% | ≥ 10 µM | 0.12 µM | 0.12 µM | 2.2 µM | 1.8 µM | > 10 µM | 0.12 µM | 4.8 | 0.36 µM | 0.42 µM | 1.2 µM | – | – | – | –
2 | O=C1NC(N2CCN(c3ccc(F)cc3)CC2)=N/C1=C\c1ccc2c(c1)OCCO2 | > 20 µM | 2.3 µM | 14 µM | – | > 10 µM | 2.2 µM | 3.1 µM | – | 10 µM | 8.2 µM | 2.1 µM | 8.1 | ≥ 10 µM | 2.1 µM | 9.3 µM | 16% | – | – | –
3 | CCCNC1=N/C(=C\c2ccc3c(c2)OCO3)C(=O)N1C | – | 0.12 µM | > 20 µM | – | 2.5 µM | 0.095 µM | 0.46 µM | > 10 µM | 0.56 µM | 1.4 µM | 0.11 µM | 6.8 | 0.55 µM | 1.2 µM | 3.2 µM | -15.8% | 3.72 | Non-Toxic | –
4 | COc1ccc(/C=C2\N=C(Nc3ccccc3)NC2=O)cc1 | > 20 µM | 0.28 µM | 5.3 µM | 92.2% | – | 0.22 µM | 0.17 µM | 2.1 µM | > 10 µM | – | 0.34 µM | 5.8 | 0.55 µM | 2.1 µM | ≥ 10 µM | – | – | – | –
5 | COc1cccc(/C=C2\N=C(Nc3ccccc3)NC2=O)c1 | – | 5 µM | 7.2 µM | 71.9% | – | > 10 µM | > 10 µM | – | > 10 µM | – | ≥ 10 µM | 5.7 | – | – | 3.1 µM | – | – | – | > 20 µM
6 | Cc1ccc(NC2=N/C(=C\c3ccc4c(c3)OCO4)C(=O)N2)cc1C | – | 0.16 µM | 2.7 µM | 51.7% | > 10 µM | 0.055 µM | 0.13 µM | > 10 µM | 2.2 µM | > 10 µM | 0.28 µM | 6.6 | 0.52 µM | 1.7 µM | > 10 µM | – | – | – | > 20 µM
7 | CN1CCN(c2ccc(NC3=N/C(=C\C4=COc5ccccc5O4)C(=O)N3)cc2)CC1 | > 20 µM | 0.019 µM | 12 µM | – | 1.1 µM | 0.008 µM | 0.007 µM | 0.45 µM | 0.067 µM | 0.12 µM | 0.017 µM | 22 | 0.02 µM | 0.014 µM | 0.51 µM | -1.4% | – | – | –
8 | CN1CCN(c2ccc(NC3=N/C(=C\c4ccc5c(c4)OCO5)C(=O)N3)cc2)CC1 | – | 0.016 µM | > 20 µM | – | 0.8 µM | 0.05 µM | 0.012 µM | 1.2 µM | 0.035 µM | 0.12 µM | 0.023 µM | 24.9 | – | 0.025 µM | 1.1 µM | -14.5% | 7.48 | Non-Toxic | –
9 | O=C1NC(Nc2ccccc2)=NC1Cc1ccc2c(c1)OCO2 (centres undefined) | – | 5.6 µM | – | – | > 10 µM | > 10 µM | 5.1 µM | – | > 10 µM | > 10 µM | 6.27 µM | – | > 10 µM | > 10 µM | – | – | – | – | > 20 µM
10 | CN1C(=O)/C(=C/c2ccc3c(c2)OCO3)N=C1Nc1ccccc1 | – | 0.11 µM | 14 µM | – | 1.4 µM | 0.08 µM | 0.093 µM | > 10 µM | 0.5 µM | 0.75 µM | 0.14 µM | 7.9 | 3.2 µM | 0.87 µM | ≥ 10 µM | -5.5% | 4.42 | Non-Toxic | –

— ChEMBL document CHEMBL5126517, “Structure-Activity Relationship in the Leucettine Family of Kinase Inhibitors” (J Med Chem, 2022)
